Laboratory results: patent publication US9334264B2, “NAMPT inhibitors” (AbbVie Inc., priority 2012, dated 2016)

What was measured:
NAMPT = NAMPT (Homo sapiens, UniProt P43490); assay: Time-Resolved Fluorescence Resonance Energy Transfer (TR-FRET) Binding Assay of NAMPT with PRPP; settings: 200 μM PRPP and 2.5 mM ATP; 2 nM NAMPT, 2 nM probe, equilibrated 16 hours
Procedure: Time-Resolved Fluorescence Resonance Energy Transfer (TR-FRET) Binding Assay of NAMPT with PRPP
Compound handling and data processing were identical to the assay in the absence of substrates (above). Final concentrations were 1× assay buffer, 2% DMSO, 2 nM NAMPT, 2 nM probe, 1 nM Tb-anti-His antibody (Invitrogen #PV5895), 200 μM PRPP and 2.5 mM ATP. Reactions were equilibrated for 16 hours prior to measurement to allow for potential enzymatic modification of test compounds.

[1] = biological target: NAMPT (human, recombinant, C-terminally His-tagged) (Homo sapiens, UniProt P43490); assay: Time-Resolved Fluorescence Resonance Energy Transfer (TR-FRET) Binding Assay of NAMPT; settings: absence of substrates; 6.8 nM NAMPT, 200 nM probe, equilibrated 3 hours
Procedure: Determination of the utility of compounds having Formula (I) as binders to and inhibitors of NAMPT was performed using Time-Resolved Fluorescence Resonance Energy Transfer (TR-FRET) binding assays.
Time-Resolved Fluorescence Resonance Energy Transfer (TR-FRET) Binding Assay of NAMPT
Test compounds were serially diluted (typically 11 half log dilutions) in neat DMSO to 50× final concentrations prior to dilution with assay buffer (50 mM HEPES (NaOH), pH 7.5, 100 mM NaCl, 10 mM MgCl2, 1 mM DTT, 1% Glycerol) to 3× and 6% DMSO. Six μL were transferred to 384-well low-volume plates (Owens Corning #3673). To this, 12 μL of a 1.5× solution containing enzyme, probe and antibody were added. Final concentrations in the 18 μL reactions were 1× assay buffer, 2% DMSO, 6.8 nM NAMPT (human, recombinant, C-terminally His-tagged), 200 nM probe (a potent nicotinamide-competitive inhibitor conjugated to Oregon Green 488) and 1 nM Tb-anti-His antibody (Invitrogen #PV5895). Reactions were equilibrated at room temperature for 3 hours prior to reading on an Envision multi-label plate reader (Perkin Elmer; Ex=337 nm, Em=520 and 495 nm). Time-resolved FRET ratios (Em520/Em495) were normalized to controls, plotted as a function of compound concentration and fit with the four-parameter logistic equation to determine IC50s.

Chain of NAMPT (human, recombinant, C-terminally His-tagged) (P43490 whole entry): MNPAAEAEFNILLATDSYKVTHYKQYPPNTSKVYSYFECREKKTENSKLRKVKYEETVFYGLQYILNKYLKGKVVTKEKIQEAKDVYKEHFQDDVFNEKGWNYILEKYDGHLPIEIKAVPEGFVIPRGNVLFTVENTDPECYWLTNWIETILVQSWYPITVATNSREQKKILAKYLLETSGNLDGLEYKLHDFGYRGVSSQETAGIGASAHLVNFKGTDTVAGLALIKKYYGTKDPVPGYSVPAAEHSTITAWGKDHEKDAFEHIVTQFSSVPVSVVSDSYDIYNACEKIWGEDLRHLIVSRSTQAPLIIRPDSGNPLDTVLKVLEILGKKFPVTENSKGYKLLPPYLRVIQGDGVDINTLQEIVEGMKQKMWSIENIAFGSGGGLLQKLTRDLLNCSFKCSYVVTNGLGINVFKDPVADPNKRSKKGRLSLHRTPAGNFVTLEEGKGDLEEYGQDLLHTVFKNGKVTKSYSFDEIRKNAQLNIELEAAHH
Chain of NAMPT (P43490 whole entry): as above

IC50 (NAMPT) [µM] | IC50 [1] [µM] | Structure (SMILES)
0.00122 | 8.95 | O=C(NCCCn1ccnc1)c1cnc(N(Cc2ccc(F)cc2)C(=O)CN2CCN3CCCC3C2)s1 (stereo not drawn) [Example 33, 2-[(4-fluorobenzyl)(hexahydropyrrolo[1,2-a]pyrazin-2(1H)-ylacetyl)amino]-N-[3-(1H-imidazol-1-yl)propyl]-1,3-thiazole-5-carboxamide]
0.291 | 8.23 | CCOC(=O)CCNC(=O)N(Cc1ccc(C#N)cc1)c1ncc(C(=O)NCCCn2ccnc2)s1 [Example 159, ethyl N-[(4-cyanobenzyl)(5-{[3-(1H-imidazol-1-yl)propyl]carbamoyl}-1,3-thiazol-2-yl)carbamoyl]-beta-alaninate]
0.000531 | 4.81 | C=CCN1CCN(CC(=O)N(Cc2ccc(F)cc2)c2ncc(C(=O)NCCCn3ccnc3)s2)CC1 [Example 37, 2-[(4-fluorobenzyl){[4-(prop-2-en-1-yl)piperazin-1-yl]acetyl}amino]-N-[3-(1H-imidazol-1-yl)propyl]-1,3-thiazole-5-carboxamide]
0.000518 | 0.23 | CC(C)CCN(C(=O)CC1CCOCC1)c1ncc(C(=O)NCCCn2ccnc2)s1 [Example 154, N-[3-(1H-imidazol-1-yl)propyl]-2-[(3-methylbutyl)(tetrahydro-2H-pyran-4-ylacetyl)amino]-1,3-thiazole-5-carboxamide]
0.00021 | 0.252 | COCCC(=O)N(CCC(C)C)c1ncc(C(=O)NCCCn2ccnc2)s1 [Example 150, N-[3-(1H-imidazol-1-yl)propyl]-2-[(3-methoxypropanoyl)(3-methylbutyl)amino]-1,3-thiazole-5-carboxamide]
0.00277 | 6.58 | O=C(NCCCn1ccnc1)c1cnc(N(Cc2ccc(F)cc2)C(=O)NCC2CCCO2)s1 (stereo not drawn) [Example 79, 2-{(4-fluorobenzyl)[(tetrahydrofuran-2-ylmethyl)carbamoyl]amino}-N-[3-(1H-imidazol-1-yl)propyl]-1,3-thiazole-5-carboxamide]
0.000411 | 9.86 | COCCN(C(=O)Cc1ccccn1)c1ncc(C(=O)NCCCn2ccnc2)s1 [Example 213, N-[3-(1H-imidazol-1-yl)propyl]-2-[(2-methoxyethyl)(pyridin-2-ylacetyl)amino]-1,3-thiazole-5-carboxamide]
0.000682 | 4.14 | COCC(=O)N(Cc1ccc(F)cc1)c1ncc(C(=O)NCCCn2ccnc2)s1 [Example 24, 2-[(4-fluorobenzyl)(methoxyacetyl)amino]-N-[3-(1H-imidazol-1-yl)propyl]-1,3-thiazole-5-carboxamide]
0.000405 | 4.99 | COCCC(=O)N(CC(=O)N1CCCC1)c1ncc(C(=O)NCCCn2ccnc2)s1 [Example 202, N-[3-(1H-imidazol-1-yl)propyl]-2-{(3-methoxypropanoyl)[2-oxo-2-(pyrrolidin-1-yl)ethyl]amino}-1,3-thiazole-5-carboxamide]
0.000286 | 1.43 | CC(=O)O[C@@H](C)C(=O)N(CCC(C)C)c1ncc(C(=O)NCCCn2ccnc2)s1 [Example 153, (2S)-1-[(5-{[3-(1H-imidazol-1-yl)propyl]carbamoyl}-1,3-thiazol-2-yl)(3-methylbutyl)amino]-1-oxopropan-2-yl acetate]
0.0715 |  | CN(Cc1ccc(F)cc1)c1ncc(C(=O)NCCCn2ccnc2)s1 [Example 3, 2-[(4-fluorobenzyl)(methyl)amino]-N-[3-(1H-imidazol-1-yl)propyl]-1,3-thiazole-5-carboxamide]
0.0942 | > 10 | N#Cc1ccc(CN(C(=O)NCCCN2CC(O)C2)c2ncc(C(=O)NCCCn3ccnc3)s2)cc1 [Example 149, 2-[(4-cyanobenzyl){[3-(3-hydroxyazetidin-1-yl)propyl]carbamoyl}amino]-N-[3-(1H-imidazol-1-yl)propyl]-1,3-thiazole-5-carboxamide]
0.000624 | 3.52 | COC(C)CNC(=O)N(Cc1ccc(C#N)cc1)c1ncc(C(=O)NCCCn2ccnc2)s1 (stereo not drawn) [Example 124, 2-{(4-cyanobenzyl)[(2-methoxypropyl)carbamoyl]amino}-N-[3-(1H-imidazol-1-yl)propyl]-1,3-thiazole-5-carboxamide]
0.000727 | > 10 | CC(O)CNC(=O)N(Cc1ccc(C#N)cc1)c1ncc(C(=O)NCCCn2ccnc2)s1 (stereo not drawn) [Example 128, 2-{(4-cyanobenzyl)[(2-hydroxypropyl)carbamoyl]amino}-N-[3-(1H-imidazol-1-yl)propyl]-1,3-thiazole-5-carboxamide]
0.00398 | > 10 | COCCN(C)C(=O)N(Cc1ccc(F)cc1)c1ncc(C(=O)NCCCn2ccnc2)s1 [Example 69, 2-{(4-fluorobenzyl)[(2-methoxyethyl)(methyl)carbamoyl]amino}-N-[3-(1H-imidazol-1-yl)propyl]-1,3-thiazole-5-carboxamide]
0.00102 | 4.85 | N#Cc1ccc(CN(C(=O)NCCCCO)c2ncc(C(=O)NCCCn3ccnc3)s2)cc1 [Example 132, 2-{(4-cyanobenzyl)[(4-hydroxybutyl)carbamoyl]amino}-N-[3-(1H-imidazol-1-yl)propyl]-1,3-thiazole-5-carboxamide]
0.00178 | 1.9 | N#Cc1ccc(CN(C(=O)CC2CCOC2)c2ncc(C(=O)NCCCn3ccnc3)s2)cc1 (stereo not drawn) [Example 61, 2-[(4-cyanobenzyl)(tetrahydrofuran-3-ylacetyl)amino]-N-[3-(1H-imidazol-1-yl)propyl]-1,3-thiazole-5-carboxamide]
0.00704 | > 10 | O=C(NCCCn1ccnc1)c1cnc(N(Cc2ccc(F)cc2)C(=O)N2CCCOCC2)s1 [Example 73, N-(4-fluorobenzyl)-N-(5-{[3-(1H-imidazol-1-yl)propyl]carbamoyl}-1,3-thiazol-2-yl)-1,4-oxazepane-4-carboxamide]
0.00111 | > 10 | N#Cc1ccc(CN(C(=O)NCCCO)c2ncc(C(=O)NCCCn3ccnc3)s2)cc1 [Example 130, 2-{(4-cyanobenzyl)[(3-hydroxypropyl)carbamoyl]amino}-N-[3-(1H-imidazol-1-yl)propyl]-1,3-thiazole-5-carboxamide]
0.000216 | 3.21 | COCCN(C(=O)Cc1ccc(C#N)cc1)c1ncc(C(=O)NCCCn2ccnc2)s1 [Example 187, 2-{[(4-cyanophenyl)acetyl](2-methoxyethyl)amino}-N-[3-(1H-imidazol-1-yl)propyl]-1,3-thiazole-5-carboxamide]
0.0921 | 3.82 | O=C(NCCCn1ccnc1)c1cnc(N(Cc2ccc(F)cc2)Cc2ccc(Cl)cc2)s1 [Example 15, 2-[(4-chlorobenzyl)(4-fluorobenzyl)amino]-N-[3-(1H-imidazol-1-yl)propyl]-1,3-thiazole-5-carboxamide]
0.338 |  | O=C(NCCCn1ccnc1)c1cnc(N(Cc2ccc(F)cc2)Cc2c(Cl)ccc3c2OCO3)s1 [Example 14, 2-{[(5-chloro-1,3-benzodioxol-4-yl)methyl](4-fluorobenzyl)amino}-N-[3-(1H-imidazol-1-yl)propyl]-1,3-thiazole-5-carboxamide]
12.5 |  | CC(C)NC(=O)CN(Cc1ccc(F)cc1)c1ncc(C(=O)NCCCn2ccnc2)s1 [Example 19, 2-{(4-fluorobenzyl)[2-oxo-2-(propan-2-ylamino)ethyl]amino}-N-[3-(1H-imidazol-1-yl)propyl]-1,3-thiazole-5-carboxamide]
0.00121 |  | CN(C)CC(=O)N(Cc1ccc(F)cc1)c1ncc(C(=O)NCCCn2ccnc2)s1 [Example 26, 2-[(N,N-dimethylglycyl)(4-fluorobenzyl)amino]-N-[3-(1H-imidazol-1-yl)propyl]-1,3-thiazole-5-carboxamide]
 | 0.0638 | O=C(NCCCn1ccnc1)c1cnc(N(Cc2ccc(F)cc2)Cc2ccc(-c3cccnc3)cc2)s1 [Example 1, 2-{(4-fluorobenzyl)[4-(pyridin-3-yl)benzyl]amino}-N-[3-(1H-imidazol-1-yl)propyl]-1,3-thiazole-5-carboxamide]
12.5 |  | CN(C)C(=O)CN(Cc1ccc(F)cc1)c1ncc(C(=O)NCCCn2ccnc2)s1 [Example 20, 2-{[2-(dimethylamino)-2-oxoethyl](4-fluorobenzyl)amino}-N-[3-(1H-imidazol-1-yl)propyl]-1,3-thiazole-5-carboxamide]
0.641 |  | O=C(NCCCn1ccnc1)c1cnc(N(CCN2CCCC2)Cc2ccc(F)cc2)s1 [Example 9, 2-{(4-fluorobenzyl)[2-(pyrrolidin-1-yl)ethyl]amino}-N-[3-(1H-imidazol-1-yl)propyl]-1,3-thiazole-5-carboxamide]
1.22 |  | O=C(NCCCn1ccnc1)c1cnc(N(Cc2ccc(F)cc2)Cc2cc(Cl)ccc2Cl)s1 [Example 17, 2-[(2,5-dichlorobenzyl)(4-fluorobenzyl)amino]-N-[3-(1H-imidazol-1-yl)propyl]-1,3-thiazole-5-carboxamide]
